Laboratory results reported in ChEMBL document CHEMBL1201861, “Genomics of Drug Sensitity in Cancer screening data, Wellcome Trust Sanger Institute”.

Columns and labels:
Assay in all cases: cells
Type in all cases: functional, cell-based, Homo sapiens
COR-L88 = conditions: Homo sapiens, COR-L88;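 also: growth inhibition of COR-L88 cells, read out with a cell viability assay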
Description: SANGER: Inhibition of human COR-L88 cell growth in a cell viability assay.

CP66-MEL = conditions: Homo sapiens, CP66-MEL;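 also: growth inhibition of CP66-MEL cells determined in a cell viability assay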
Description: SANGER: Inhibition of human CP66-MEL cell growth in a cell viability assay.

CTV-1 = conditions: Homo sapiens, CTV-1;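 also: growth inhibition of the cell line, read out with a cell viability assay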
Description: SANGER: Inhibition of human CTV-1 cell growth in a cell viability assay.

D-247MG = conditions: Homo sapiens, D-247MG
Description: SANGER: Inhibition of human D-247MG cell growth in a cell viability assay.

DMS-79 = conditions: Homo sapiens, DMS-79;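 also: growth inhibition measured with a cell viability assay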
Description: SANGER: Inhibition of human DMS-79 cell growth in a cell viability assay.

DOHH-2 = conditions: Homo sapiens, DOHH-2;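 also: growth inhibition of human DOHH-2 cells, read out with a cell viability assay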
Description: SANGER: Inhibition of human DOHH-2 cell growth in a cell viability assay.

EKVX = conditions: Homo sapiens, EKVX;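 also: growth inhibition of human EKVX cells, read out with a cell viability assay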
Description: SANGER: Inhibition of human EKVX cell growth in a cell viability assay.

ES1 = conditions: Homo sapiens, ES1;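 also: growth inhibition of ES1 cells, read out with a cell viability assay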
Description: SANGER: Inhibition of human ES1 cell growth in a cell viability assay.

EW-24 = conditions: Homo sapiens, EW-24;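 also: human EW-24 cancer cell line, growth inhibition read out via a cell viability assay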
Description: SANGER: Inhibition of human EW-24 cell growth in a cell viability assay.

GB-1 = conditions: Homo sapiens, GB-1;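 also: growth of GB-1 cells judged by a viability assay, IC50 marks the concentration inhibiting growth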
Description: SANGER: Inhibition of human GB-1 cell growth in a cell viability assay.

HCC1187 = conditions: Homo sapiens, HCC1187;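 also: growth inhibition of HCC1187 cells, read out with a cell viability assay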
Description: SANGER: Inhibition of human HCC1187 cell growth in a cell viability assay.

HCC2157 = conditions: Homo sapiens, HCC2157;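 also: growth inhibition of the cancer cell line, read out as cell viability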
Description: SANGER: Inhibition of human HCC2157 cell growth in a cell viability assay.

HD-MY-Z = conditions: Homo sapiens, HD-MY-Z;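 also: growth inhibition of HD-MY-Z cells, read out with a cell viability assay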
Description: SANGER: Inhibition of human HD-MY-Z cell growth in a cell viability assay.

HEL = conditions: Homo sapiens, HEL;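 also: growth inhibition of HEL cells, read out with a cell viability assay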
Description: SANGER: Inhibition of human HEL cell growth in a cell viability assay.

HOP-62 = conditions: Homo sapiens, HOP-62;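 also: cell growth inhibition determined with a viability assay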
Description: SANGER: Inhibition of human HOP-62 cell growth in a cell viability assay.

HT-144 = conditions: Homo sapiens, HT-144
Description: SANGER: Inhibition of human HT-144 cell growth in a cell viability assay.

IA-LM = conditions: Homo sapiens, IA-LM;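 also: cell viability assay measuring growth inhibition of human IA-LM cells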
Description: SANGER: Inhibition of human IA-LM cell growth in a cell viability assay.

IST-MEL1 = conditions: Homo sapiens, IST-MEL1;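 also: growth inhibition of the cell line, read out with a cell viability assay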
Description: SANGER: Inhibition of human IST-MEL1 cell growth in a cell viability assay.

KNS-81-FD = conditions: Homo sapiens, KNS-81-FD;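 also: growth inhibition of KNS-81-FD cells, read out with a cell viability assay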
Description: SANGER: Inhibition of human KNS-81-FD cell growth in a cell viability assay.

L-363 = conditions: Homo sapiens, L-363
Description: SANGER: Inhibition of human L-363 cell growth in a cell viability assay.

LU-139 = conditions: Homo sapiens, LU-139
Description: SANGER: Inhibition of human LU-139 cell growth in a cell viability assay.

MS-1 = conditions: Homo sapiens, MS-1;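 also: growth inhibition of MS-1 cells, read out by cell viability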
Description: SANGER: Inhibition of human MS-1 cell growth in a cell viability assay.

MSTO-211H = conditions: Homo sapiens, MSTO-211H
Description: SANGER: Inhibition of human MSTO-211H cell growth in a cell viability assay.

NB5 = conditions: Homo sapiens, NB5;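 also: growth inhibition of NB5 cells, read out as cell viability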
Description: SANGER: Inhibition of human NB5 cell growth in a cell viability assay.

NB6 = conditions: Homo sapiens, NB6
Description: SANGER: Inhibition of human NB6 cell growth in a cell viability assay.

NB69 = conditions: Homo sapiens, NB69;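 also: growth inhibition of NB69 cells, determined by a cell viability assay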
Description: SANGER: Inhibition of human NB69 cell growth in a cell viability assay.

NCI-H1092 = conditions: Homo sapiens, NCI-H1092;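 also: cell growth inhibition measured with a cell viability assay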
Description: SANGER: Inhibition of human NCI-H1092 cell growth in a cell viability assay.

NCI-H1304 = conditions: Homo sapiens, NCI-H1304;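 also: growth inhibition of the cancer cell line, measured in a cell viability assay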
Description: SANGER: Inhibition of human NCI-H1304 cell growth in a cell viability assay.

NCI-H209 = conditions: Homo sapiens, NCI-H209;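 also: growth inhibition of human NCI-H209 cells, measured by a cell viability assay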
Description: SANGER: Inhibition of human NCI-H209 cell growth in a cell viability assay.

NCI-H526 = conditions: Homo sapiens, NCI-H526;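 also: growth inhibition of the human NCI-H526 cell line, measured by a cell viability assay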
Description: SANGER: Inhibition of human NCI-H526 cell growth in a cell viability assay.

NCI-H69 = conditions: Homo sapiens, NCI-H69;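 also: growth inhibition of the cell line, read out with a cell viability assay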
Description: SANGER: Inhibition of human NCI-H69 cell growth in a cell viability assay.

NCI-H747 = conditions: Homo sapiens, NCI-H747;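 also: growth inhibition of human NCI-H747 cells, read out by a cell viability assay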
Description: SANGER: Inhibition of human NCI-H747 cell growth in a cell viability assay.

SNU-5 = conditions: Homo sapiens, SNU-5;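 also: cell viability readout used to measure growth inhibition in human NCI-SNU-5 cells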
Description: SANGER: Inhibition of human NCI-SNU-5 cell growth in a cell viability assay.

NTERA-2-cl-D1 = conditions: Homo sapiens, NTERA-2-cl-D1;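 also: inhibition of cell growth, measured with a cell viability assay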
Description: SANGER: Inhibition of human NTERA-S-cl-D1 cell growth in a cell viability assay.

OCUB-M = conditions: Homo sapiens, OCUB-M;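 also: growth inhibition of the cancer cell line, read out through a cell viability assay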
Description: SANGER: Inhibition of human OCUB-M cell growth in a cell viability assay.

SCC-15 = conditions: Homo sapiens, SCC-15;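 also: growth inhibition of SCC-15 cells, read out with a cell viability assay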
Description: SANGER: Inhibition of human SCC-15 cell growth in a cell viability assay.

SK-N-DZ = conditions: Homo sapiens, SK-N-DZ;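 also: growth inhibition of the cancer cell line, read out through a viability assay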
Description: SANGER: Inhibition of human SK-N-DZ cell growth in a cell viability assay.

SK-N-FI = conditions: Homo sapiens, SK-N-FI;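 also: cell viability assay measuring growth inhibition of human SK-N-FI cells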
Description: SANGER: Inhibition of human SK-N-FI cell growth in a cell viability assay.

SK-UT-1 = conditions: Homo sapiens, SK-UT-1;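 also: growth inhibition of SK-UT-1 cells, measured by a cell viability assay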
Description: SANGER: Inhibition of human SK-UT-1 cell growth in a cell viability assay.

SW 962 = conditions: Homo sapiens, SW 962;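 also: growth inhibition of human SW962 cells, read out by a cell viability assay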
Description: SANGER: Inhibition of human SW962 cell growth in a cell viability assay.

A3-KAW = conditions: Homo sapiens, A3-KAW;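 also: growth inhibition of human A3-KAW cells, read out with a cell viability assay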
Description: SANGER: Inhibition of human A3-KAW cell growth in a cell viability assay.

AM-38 = conditions: Homo sapiens, AM-38;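 also: growth inhibition of AM-38 cells of human origin, read out by a cell viability assay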
Description: SANGER: Inhibition of human AM-38 cell growth in a cell viability assay.

ATN-1 = conditions: Homo sapiens, ATN-1;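 also: growth inhibition of human ATN-1 cells, read out with a cell viability assay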
Description: SANGER: Inhibition of human ATN-1 cell growth in a cell viability assay.

C8166 = conditions: Homo sapiens, C8166;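 also: growth inhibition of human C8166 cells measured by a cell viability assay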
Description: SANGER: Inhibition of human C8166 cell growth in a cell viability assay.

TGBC1TKB = conditions: Homo sapiens, TGBC1TKB;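 also: growth inhibition of TGBC1TKB cells, read out by a cell viability assay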
Description: SANGER: Inhibition of human TGBC1TKB cell growth in a cell viability assay.

TGW = conditions: Homo sapiens, TGW;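 also: growth inhibition of human TGW cells, read out with a cell viability assay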
Description: SANGER: Inhibition of human TGW cell growth in a cell viability assay.

UACC-257 = conditions: Homo sapiens, UACC-257
Description: SANGER: Inhibition of human UACC-257 cell growth in a cell viability assay.

VA-ES-BJ = conditions: Homo sapiens, VA-ES-BJ;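 also: growth inhibition of the VA-ES-BJ cell line, read out by a cell viability assay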
Description: SANGER: Inhibition of human VA-ES-BJ cell growth in a cell viability assay.

Compound: COc1cc(-c2nn([C@H]3CC[C@H](N4CCN(C(C)=O)CC4)CC3)c3ncnc(N)c23)ccc1NC(=O)c1cc2ccccc2n1C
- IC50 (COR-L88): > 5120 nM
- IC50 (CP66-MEL): > 5120 nM
- IC50 (CTV-1): < 20 nM
- IC50 (D-247MG): > 5120 nM
- IC50 (DMS-79): > 5120 nM
- IC50 (DOHH-2): 39.1 nM
- IC50 (EKVX): > 5120 nM
- IC50 (ES1): > 5120 nM
- IC50 (EW-24): > 5120 nM
- IC50 (GB-1): 678 nM
- IC50 (HCC1187): > 5120 nM
- IC50 (HCC2157): > 5120 nM
- IC50 (HD-MY-Z): 4880 nM
- IC50 (HEL): > 5120 nM
- IC50 (HOP-62): 475 nM
- IC50 (HT-144): > 5120 nM
- IC50 (IA-LM): > 5120 nM
- IC50 (IST-MEL1): 838 nM
- IC50 (KNS-81-FD): > 5120 nM
- IC50 (L-363): > 5120 nM
- IC50 (LU-139): > 5120 nM
- IC50 (MS-1): > 5120 nM
- IC50 (MSTO-211H): > 5120 nM
- IC50 (NB5): > 5120 nM
- IC50 (NB6): > 5120 nM
- IC50 (NB69): 3290 nM
- IC50 (NCI-H1092): > 5120 nM
- IC50 (NCI-H1304): > 5120 nM
- IC50 (NCI-H209): > 5120 nM
- IC50 (NCI-H526): > 5120 nM
- IC50 (NCI-H69): > 5120 nM
- IC50 (NCI-H747): 2860 nM
- IC50 (SNU-5): > 5120 nM
- IC50 (NTERA-2-cl-D1): > 5120 nM
- IC50 (OCUB-M): 5030 nM
- IC50 (SCC-15): > 5120 nM
- IC50 (SK-N-DZ): > 5120 nM
- IC50 (SK-N-FI): > 5120 nM
- IC50 (SK-UT-1): > 5120 nM
- IC50 (SW 962): > 5120 nM
- IC50 (A3-KAW): > 5120 nM
- IC50 (AM-38): > 5120 nM
- IC50 (ATN-1): > 5120 nM
- IC50 (C8166): > 5120 nM
- IC50 (TGBC1TKB): 3630 nM
- IC50 (TGW): > 5120 nM
- IC50 (UACC-257): > 5120 nM
- IC50 (VA-ES-BJ): > 5120 nM

Compound: OCCCNc1cc(-c2ccnc(Nc3cccc(Cl)c3)n2)ccn1
- IC50 (COR-L88): > 256 nM
- IC50 (CP66-MEL): > 256 nM
- IC50 (CTV-1): 66 nM
- IC50 (D-247MG): > 256 nM
- IC50 (DMS-79): > 256 nM
- IC50 (DOHH-2): 40.8 nM
- IC50 (EKVX): > 256 nM
- IC50 (ES1): > 256 nM
- IC50 (EW-24): > 256 nM
- IC50 (GB-1): 38 nM
- IC50 (HCC1187): > 256 nM
- IC50 (HCC2157): 206 nM
- IC50 (HD-MY-Z): 60.2 nM
- IC50 (HEL): 114 nM
- IC50 (HOP-62): 41.2 nM
- IC50 (HT-144): 20.6 nM
- IC50 (IA-LM): 93.2 nM
- IC50 (IST-MEL1): 126 nM
- IC50 (KNS-81-FD): > 256 nM
- IC50 (L-363): 92.6 nM
- IC50 (LU-139): 131 nM
- IC50 (MS-1): 196 nM
- IC50 (MSTO-211H): > 256 nM
- IC50 (NB5): > 256 nM
- IC50 (NB6): > 256 nM
- IC50 (NB69): > 256 nM
- IC50 (NCI-H1092): 108 nM
- IC50 (NCI-H1304): 104 nM
- IC50 (NCI-H209): 135 nM
- IC50 (NCI-H526): > 256 nM
- IC50 (NCI-H69): > 256 nM
- IC50 (NCI-H747): 47.3 nM
- IC50 (SNU-5): > 256 nM
- IC50 (NTERA-2-cl-D1): 50.8 nM
- IC50 (OCUB-M): 52.5 nM
- IC50 (SCC-15): > 256 nM
- IC50 (SK-N-DZ): > 256 nM
- IC50 (SK-N-FI): > 256 nM
- IC50 (SK-UT-1): 157 nM
- IC50 (SW 962): 45.1 nM
- IC50 (A3-KAW): 19.9 nM
- IC50 (AM-38): > 256 nM
- IC50 (ATN-1): 54.2 nM
- IC50 (C8166): > 256 nM
- IC50 (TGBC1TKB): 23.6 nM
- IC50 (TGW): 76.9 nM
- IC50 (UACC-257): > 256 nM
- IC50 (VA-ES-BJ): 41.6 nM
